Test results taken from patent US9012458B2, “Antitumor agent using compounds having kinase inhibitory effect in combination” (Eisai R&D Management Co., Ltd., priority 2010, dated 2015).
Counter-ions that a name gives are not always drawn.

How the values were obtained:
Format in all cases: in vivo
[1] = test system: human glioblastoma cell line (U87MG); assay: Combined effect in model animal transplanted with human glioblastoma cell line (U87MG); conditions: U87MG s.c. in nude mouse, Compound A 10 mg/kg, Compound B 100 mg/kg, oral once daily, average ± standard deviation
Procedure: The human glioblastoma cell line (U87MG) (ATCC) was cultured using a 10% FBS-containing E-MEM medium (SIGMA) in a 5% CO2 incubator under the condition of 37° C. When the cells reached a state of approximately 80% confluency, the cells were collected using trypsin-EDTA. To these cells, a Hanks' Balanced Salt Solution containing 50% Matrigel was added to prepare a suspension at a concentration of 5.0×10^7 cells/mL. The cell suspension thus obtained was subcutaneously transplanted at the lateral side of the body of a nude mouse (CAnN.Cg-FOXn1nu/CrlCrlj, Charles River Laboratories Japan, Inc.) in an amount of 0.1 mL, where each group contained six mice. Compound A (10 mg/kg, once daily, for 21 days) and Compound B (100 mg/kg, once daily, for 21 days) were orally administered, either individually or both in a row.
Setting the initial day of administration at Day 0, the major axis and the minor axis of a tumor developed in each mouse were measured using Digimatic caliper (Mitsutoyo Corporation) thereafter on Day 2, 5, 7, 9, 12, 14, 16, 19, and 21.
(§1) The tumor volume and the relative tumor volume were calculated according to the equations below. TV=major axis (mm)×minor axis^2 (mm^2)/2 RTV=TV on the day of measurement/TV on the initial day of administration

[2] = test system: human gastric cancer cell line (IM95m); assay: Combined effect in model animal transplanted with human gastric cancer cell line (IM95m); conditions: IM95m s.c. in nude mouse, Compound A 10 mg/kg, Compound B 100 mg/kg, oral once daily, average ± standard deviation
Procedure: The human gastric cancer cell line IM95m (Health Science Research Resources Bank) was cultured using a DMEM medium (Wako Pure Chemical Industries, Ltd) containing […] glucose, 10% FBS, and 10 μg/mL insulin in a 5% CO2 incubator under the condition of 37° C. When the cells reached a state of approximately 80% confluency, the cells were collected using trypsin-EDTA. To these cells, a Hanks' Balanced Salt Solution containing 50% Matrigel was added to prepare a suspension at 1.0×10^8 cells/mL. The cell suspension thus obtained was subcutaneously transplanted at the lateral side of the body of a nude mouse (CAnN.Cg-Foxn1nu/CrlCrlj, Charles River Laboratories Japan, Inc.) in an amount of 0.1 mL, where each group contained six mice. From 13 days after the transplantation, Compound A (10 mg/kg, once daily, for 21 days) and Compound B (100 mg/kg, once daily, for 21 days) were orally administered continuously, either individually or both in a row.
Setting the initial day of administration at Day 0, the major axis and the minor axis of a tumor developed in each mouse were measured using Digimatic caliper (Mitsutoyo Corporation) thereafter on Day 4, 7, 11, 14, 18 and 21.
as §1

[3] = test system: human pancreatic cancer cell line (KP-4); assay: Combined effect in model animal transplanted with human pancreatic cancer cell line (KP-4); conditions: KP-4 s.c. in nude mouse, Compound A 10 mg/kg, Compound B 100 mg/kg, oral once daily, average ± standard deviation
Procedure: (§2) The human pancreatic cancer cell line KP-4 (acquired from National Hospital Organization Kyushu Cancer Center) was cultured using a 10% FBS-containing RPMI 1640 medium (SIGMA) in a 5% CO2 incubator under the condition of 37° C. When the cells reached a state of approximately 80% confluency, the cells were collected using trypsin-EDTA. To these cells, a Hanks' Balanced Salt Solution containing 50% Matrigel was added to prepare a suspension at 5.0×10^7 cells/mL. The cell suspension thus obtained was subcutaneously transplanted at the lateral side of the body of a nude mouse (CAnN.Cg-Foxn1nu/CrlCrlj, Charles River Laboratories Japan, Inc.) in an amount of 0.1 mL, where each group contained six mice. From 11 days after the transplantation, Compound A (10 mg/kg, once daily, for 17 days) and Compound B (100 mg/kg, once daily, for 17 days) were orally administered, either individually or both in a row.
(§3) Setting the initial day of administration at Day 0, the major axis and the minor axis of a tumor developed in each mouse were measured using Digimatic caliper (Mitsutoyo Corporation) thereafter on Day 3, 7, 10, 14, and 17.
as §1

[4] = test system: human malignant melanoma cell line (SEKI); assay: Combined effect in model animal transplanted with human malignant melanoma cell line (SEKI); conditions: SEKI s.c. in nude mouse, Compound A 10 mg/kg, Compound B 100 mg/kg, oral once daily, average ± standard deviation
Procedure: as §2, with “malignant melanoma” for “pancreatic cancer”, “SEKI (JCRB Cell bank)” for “KP-4 (acquired from National Hospital Organization Kyushu Cancer Center)”, “RPM” for “RPMI”
as §3, §1

SMILES	RTV (relative tumor volume) Day 2 [1]	RTV (relative tumor volume) Day 5 [1]	RTV (relative tumor volume) Day 7 [1]	RTV (relative tumor volume) Day 9 [1]	RTV (relative tumor volume) Day 12 [1]	RTV (relative tumor volume) Day 14 [1]	RTV (relative tumor volume) Day 16 [1]	RTV (relative tumor volume) Day 19 [1]	RTV (relative tumor volume) Day 21 [1]	RTV (relative tumor volume) Day 4 [2]	RTV (relative tumor volume) Day 7 [2]	RTV (relative tumor volume) Day 11 [2]	RTV (relative tumor volume) Day 14 [2]	RTV (relative tumor volume) Day 18 [2]	RTV (relative tumor volume) Day 21 [2]	RTV (relative tumor volume) Day 3 [3]	RTV (relative tumor volume) Day 7 [3]	RTV (relative tumor volume) Day 10 [3]	RTV (relative tumor volume) Day 14 [3]	RTV (relative tumor volume) Day 17 [3]	other results
CN1CCN(C2CCN(C(=O)Nc3cc(Oc4ccc(NC(=O)C5(C(=O)Nc6ccc(F)cc6)CC5)c(F)c4)ccn3)CC2)CC1 [Compound B, N-(2-fluoro-4-{[2-({[4-(4-methylpiperazin-1-yl)piperidin-1-yl]carbonyl}amino)pyridin-4-yl]oxy}phenyl)-N′-(4-fluorophenyl)cyclopropane-1,1-dicarboxamide tartrate]	0.69 ± 0.05	0.61 ± 0.05	0.56 ± 0.10	0.57 ± 0.07	0.65 ± 0.08	0.73 ± 0.12	0.93 ± 0.13	1.65 ± 0.37	2.23 ± 0.51	1.12 ± 0.08	1.24 ± 0.15	1.75 ± 0.17	1.85 ± 0.16	3.09 ± 0.48	4.02 ± 1.05	1.71 ± 0.26	3.33 ± 1.06	4.72 ± 1.55	6.53 ± 2.19	9.05 ± 3.71	RTV (relative tumor volume) Day 3 [4]: 1.76 ± 0.22; RTV (relative tumor volume) Day 7 [4]: 2.93 ± 0.57; RTV (relative tumor volume) Day 10 [4]: 4.06 ± 0.85; RTV (relative tumor volume) Day 14 [4]: 5.23 ± 0.20; RTV (relative tumor volume) Day 17 [4]: 5.80 ± 1.35
COc1cc2nccc(Oc3ccc(NC(=O)NC4CC4)c(Cl)c3)c2cc1C(N)=O [Compound A, 4-(3-chloro-4-(cyclopropylaminocarbonyl)aminophenoxy)-7-methoxy-6-quinolinecarboxamide mesylate]	0.95 ± 0.08	1.27 ± 0.07	1.59 ± 0.16	1.85 ± 0.13	3.29 ± 0.32	4.76 ± 0.49	6.19 ± 0.95	9.60 ± 1.99	11.53 ± 2.57	1.53 ± 0.12	2.10 ± 0.18	2.65 ± 0.37	2.65 ± 0.49	2.80 ± 0.47	3.18 ± 0.57	1.67 ± 0.16	2.89 ± 0.74	3.77 ± 1.26	4.83 ± 1.75	5.81 ± 2.17	RTV (relative tumor volume) Day 3 [4]: 1.71 ± 0.19; RTV (relative tumor volume) Day 7 [4]: 2.88 ± 0.35; RTV (relative tumor volume) Day 10 [4]: 3.74 ± 0.53; RTV (relative tumor volume) Day 14 [4]: 5.06 ± 0.49; RTV (relative tumor volume) Day 17 [4]: 5.92 ± 0.50
